Publication PMC8396878, “Ether Oxidation by an Evolved Fungal Heme-Peroxygenase: Insights into Substrate Recognition and Reactivity” (Journal of Fungi, 2021)

Assays:
Assay type in all cases: biochemical
[1] = target: T1, unspecific peroxygenase (UPO) PaDa-I (Cyclocybe aegerita, UniProt B9W4V6, F354L/I291V/L110F/V100A/V118I); test: inhibition of catalase activity (O2 production, Clark electrode); substrate consumption by HPLC
T1 construct: gene APO1; laboratory-evolved variant PaDa-I, heterologously expressed and purified
T1 sequence (B9W4V6 44-371 V100A/L110F/V118I/I291V/F354L): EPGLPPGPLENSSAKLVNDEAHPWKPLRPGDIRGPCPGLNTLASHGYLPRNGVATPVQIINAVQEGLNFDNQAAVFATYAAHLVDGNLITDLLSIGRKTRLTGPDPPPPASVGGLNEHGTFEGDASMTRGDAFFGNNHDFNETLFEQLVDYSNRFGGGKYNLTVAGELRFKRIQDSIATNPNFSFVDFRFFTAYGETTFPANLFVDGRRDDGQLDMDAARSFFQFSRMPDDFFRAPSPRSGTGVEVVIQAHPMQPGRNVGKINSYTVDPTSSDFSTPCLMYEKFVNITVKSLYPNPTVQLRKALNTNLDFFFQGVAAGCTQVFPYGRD

[2] = target: T1, unspecific peroxygenase (UPO) PaDa-I; test: inhibition of NBD peroxygenation (Michaelis-Menten kinetics); also uncompetitive inhibition of ABTS peroxidation
[3] = target: T2, unspecific peroxygenase (UPO) PaDa-I (Cyclocybe aegerita, UniProt B9W4V6, V100A/L110F/V118I/I291V/F354L); test: H2O2-dependent ether oxidation, total turnover number by HPLC
T2 construct: gene APO1; laboratory-evolved variant PaDa-I, heterologously expressed and purified
T2 sequence (B9W4V6 44-371 V100A/L110F/V118I/I291V/F354L): T1 sequence (B9W4V6 44-371 V100A/L110F/V118I/I291V/F354L)

[4] = target: T2, unspecific peroxygenase (UPO) PaDa-I; test: colorimetric peroxygenation assay (4-nitrocatechol production), Michaelis-Menten plot

## OCCOCc1ccccc1 [2-(benzyloxy)ethanol]
[1]
  Ki: 390 µM

## O=C(O)COCc1ccccc1 [benzyloxyacetate]
[2]
  Ki: 3450 µM

## c1ccc(COCc2ccccc2)cc1 [dibenzylether]
[3]
  H2O2-dependent ether oxidation, total turnover number by HPLC: the more hydrophobic substrate (dibenzylether) was the most efficiently converted

## O=[N+]([O-])c1ccc2c(c1)OCO2 [NBD, 5-nitro-1,3-benzodioxole]
[4]
  colorimetric peroxygenation assay (4-nitrocatechol production), Michaelis-Menten: Michaelis–Menten plots for (A) NBD peroxygenation and (B) ABTS peroxidation in the presence of benzyloxyacetate
